Measurements from patent US20140341837A1, “Ferrate and Povidone Iodine (PI) Composition” (Biolife, L.L.C., priority 2010, published 2014).

Legend:
[1] = stability of PI in the dry powder; assay type: physicochemical; details: very dry environment of the powder
Source text: The PI is stable in this very dry environment.

[2] = on dilution; cited from earlier work
[3] = cited from earlier work
[4] = standard hemostasis strength device; details: povidone iodine at 10%
Protocol: A mixture of various iron sources, chelation compounds, and active antimicrobials was tested using the recovered biofilm from WU according to the matrix in Table III.
Each mixture was tested in a standard hemostasis strength device described in detail in FDA 510k filing, K080210, incorporated herein in its entirety, and in the standardized 96 unit biofilm eradication test device also described in the 510k filing. The results were indexed* to #12, the ferrate/resin/10% PI powder.

PVP-Iodine [PI]
stability of PI [1]: stable | solution strength at maximum content of uncomplexed iodine [2]: 0.1% | efficacy at concentrations of 5-10% PI ([3]; 5-10% PI): ineffective | I2 concentration of non-effective kill ([3]; pamphlet FIG. 2): < 0.001% | effect of PI addition on hemostatic efficiency [4]: does not affect the hemostatic efficiency
